From PMC11317440, “Soloxolone para-methylanilide effectively suppresses aggressive phenotype of glioblastoma cells including TGF-β1-induced glial-mesenchymal transition in vitro and inhibits growth of U87 glioblastoma xenografts in mice” (Frontiers in Pharmacology, 2024)

Experiments:
[1] = system: TGF-β1-treated U87 cells; assay: Adhesion of U87 cells to culture plastic (TrypLE treatment assay); format: cell-based, human; conditions: TGF-β1 50 ng/mL, non-toxic concentrations, 48 h
Method: Adhesiveness of glioblastoma cells was assessed by two independent methods. First, cell adhesion to culture plastic was tested using a trypsin treatment assay, as previously described ([Sava et al., 2004]; [Mazuryk et al., 2015]; [van Dijk et al., 2017]). Briefly, U87 and U118 cells (10,000 cells per well of a 96-well plate, n = 4) were cultured with TGF-β1 (50 ng/mL) and non-toxic concentrations of soloxolone amides for 48 h and then treated with a 1:20 dilution of TrypLE Express (Gibco, USA) in PBS for 3 min at 37°C. Non-adherent cells were then removed by a triple PBS wash, and the remaining adherent cells were fixed with 4% formaldehyde and stained with crystal violet dye (0.1% w/v). Images were captured using the iBright 1,500 Imaging System (Invitrogen, USA), and the cell-occupied area was calculated using ImageJ. Alternatively, the number of adherent cells was quantified using the MTT assay.

[2] = system: U87 glioblastoma cells; assay: MTT cell viability assay, U87 cells, 48 h; format: cell-based, human; conditions: for relative cytotoxicity: 48 h of incubation, U87; for MNTC: Homo sapiens, U-87 MG, 48 h, read-out: non-toxic concentration that reduced U87 cell viability by less than 10%
Method: Cells were seeded in quadruplicate in 96-well plates at 10,000 cells/well and allowed to adhere overnight. The medium was then replaced with serum-free DMEM containing increasing concentrations of soloxolone amides for 48 h. After incubation, 3-(4,5-dimethylthiazol-2-yl)-2,5-diphenyltetrazolium bromide (MTT dye) was added at a final concentration of 0.5 mg/mL and left for 2 h. The resulting formazan crystals were dissolved in DMSO and the optical density was measured at 570 nm using a Multiscan RC plate reader (Thermo LabSystems, Helsinki, Finland).

[3] = system: TGF-β1-induced U87 cells; assay: Cell morphology (cell size) of TGF-β1-induced U87 cells; format: cell-based, human; conditions: TGF-β1 50 ng/mL, non-toxic concentrations, 48 h
Method: After seeding at a concentration of 5,000 cells/well in triplicate in 96-well plates and incubating overnight, U87 and U118 cells were exposed to TGF-β1 (50 ng/mL) and non-toxic concentrations of soloxolone amides for 48 h. An EVOS XL Core microscope with an integrated CMOS camera (Thermo Fisher Scientific, USA) was then used to examine cell morphology at ×20 magnification. Aspect ratio (AR) and area were quantified for at least 150 cells in each experimental group using ImageJ software (NIH, USA).

[4] = system: U87 glioblastoma xenograft; design: method as in Markov et al., 2022a; conditions: 9 administered at a similar dose and schedule; ref Markov et al., 2022a; cited from earlier work
[5] = system: U87 primary tumorspheres; design: method as in Markov et al., 2023; conditions: ref Markov et al., 2023; cited from earlier work
[6] = system: U87 cells; assay: Annexin V-FITC/propidium iodide flow cytometry, U87, 72 h, TMZ/7/NAC; format: cell-based, human; conditions: U87, TMZ 500 μM, 7 600 nM
Method: […] To quantify the total proportion of apoptotic cells in control and experimental groups, the events accumulated in the lower right quadrant (early apoptosis) and upper right quadrant (late apoptosis) were summarized.
(§1) After staining, 10,000 cells per sample were analyzed on a NovoCyte flow cytometer using NovoExpress software (ACEA Biosciences, Inc., USA).

[7] = system: EPNT-5 cells; assay: MTT assay 72 h, 7 and TMZ alone and combined, synergy (HSA), EPNT-5; format: cell-based, mouse; conditions: MTT
Method: (§2) The drug synergy score was calculated for the dose-response matrix according to the highest single-agent (HSA) model using the SynergyFinder + web application (https://www.synergyfinder.org/).

[8] = system: U87 cells; assay: MTT assay 72 h, 7 and TMZ alone and combined, synergy (HSA), U87; format: cell-based, human
Method: as §2

[9] = system: U118 cells; assay: MTT assay 72 h, 7 and TMZ alone and combined, synergy (HSA), U118; format: cell-based, human
Method: as §2

[10] = system: U87 glioblastoma tumor tissue; assay: Histology and immunohistochemistry of U87 xenograft tumors; format: in vivo, athymic nude mice; conditions: day 19
Method: For the histological study, the tumor specimens were fixed in 10% neutral-buffered formalin (BioVitrum, Moscow, Russia), dehydrated in ascending ethanols and xylols and embedded in HISTOMIX paraffin (BioVitrum, Russia). The paraffin sections (3–4 µm) were sliced on a Microm HM 355S microtome (Thermo Fisher Scientific, Waltham, MA, USA) and stained with hematoxylin and eosin.
For the immunohistochemical study, the tumor sections were deparaffinized and rehydrated. Antigen retrieval was carried out after exposure in a microwave oven at 700 W. The samples were incubated with anti-Ki-67 (ab16667, Abcam, Boston, MA, USA) (n = 3), anti-GFAP (ab194325, Abcam, USA) (n = 3), and anti-N-cadherin (ab76011, Abcam, USA) (n = 3) primary antibodies according to the manufacturer’s protocol. Then, the sections were incubated with secondary horseradish peroxidase (HPR)-conjugated antibodies, exposed to the 3,30-diaminobenzidine (DAB) substrate (Rabbit Specific HRP/DAB (ABC) Detection IHC Kit, ab64261, Abcam, USA) and stained with Mayer’s hematoxylin.
Five to ten random fields were examined from the tumor specimens of three mice in each group, for a total of 15–30 test fields.

[11] = Toxicity assessment in U87 glioblastoma-bearing mice; format: in vivo, athymic nude mice; conditions: 7 20 mg/kg i.p. or TMZ 10 mg/kg i.p. injected alone
Method: During the experiment, the general status and body weight of the animals were monitored. At the end of the experiment, livers and kidneys were collected and organ indices were calculated as (organ weight/body weight) × 100%, followed by the normalization of organ indices of experimental mice to organ indices of control mice.

[12] = system: U87 glioblastoma xenograft; assay: U87 glioblastoma xenograft model; format: in vivo, athymic nude mice; conditions: end of the experiment (day 19); 7 20 mg/kg i.p., TMZ 10 mg/kg i.p.
Method: A xenograft model of tumor progression was induced by subcutaneous (s.c.) implantation of U87 glioblastoma cells (2×10^7 cells/mL) suspended in 0.1 mL of saline buffer into the left flank of athymic nude mice. On day 4 after tumor transplantation, the mice were divided into four groups: (1) mice received intraperitoneal (i.p.) injections of 10% Tween-80 (vehicle) (n = 6); (2) mice received i.p. injections of compound 7 in 10% Tween-80 at a dose of 20 mg/kg (n = 5); (3) mice received i.p. injections of TMZ in saline buffer at a dose of 10 mg/kg (n = 5); (4) mice received combination therapy of compound 7 and TMZ at the same dosage and administration route (n = 6). Compound 7 was administered three times per week; in total seven injections were performed. TMZ was administered daily except weekends; in total eleven injections were performed. During the experiment, the tumor volumes were determined three times per week using caliper measurements and were calculated as V = (D × d^2)/2, where D is the longest diameter of the tumor node and d is the shortest diameter of the tumor node perpendicular to D. Mice were sacrificed on day 19 after tumor transplantation and material (tumor nodes, livers, and kidneys) was collected for subsequent analysis.

[13] = system: ROS production in U87 cells; assay: Intracellular ROS (DCFDA staining, flow cytometry), U87; format: cell-based, human; conditions: U87, TMZ 125 μM, 7 100 nM, NAC 2 mM, 72 h
Method: Intracellular ROS levels were measured according to previously published studies ([Han et al., 2008]; [Samandari-Bahraseman et al., 2023]; [Kopsida et al., 2024]), using the DCFDA/H2DCFDA Cellular ROS Assay Kit (Abcam, Cambridge, United Kingdom). U87 cells were incubated with 7 and TMZ with or without NAC for 72 h (n = 3). Cells were then washed with PBS and incubated with 20 µM H2DCFDA for 30 min under standard conditions, followed by the removal of H2DCFDA-containing medium and double washing with PBS.
as §1

Structure (SMILES): CN(C)CCNC(=O)[C@@]1(C)CC[C@]2(C)CC[C@]3(C)[C@H](C(=O)C=C4[C@@]5(C)C=C(C#N)C(=O)C(C)(C)C5CC[C@]43C)[C@@H]2C1 (stereo partly drawn) [compound 3, N-(2′-(dimethylamino)ethyl)-2-cyano-3,12-dioxo-18βH-olean-9(11),1(2)-dien-30-amide]
- adhesion of TGF-β1-treated U87 cells to culture plastic (crystal violet) [1]: restoring it to control levels
- relative cytotoxicity [2]: low
- MNTC [2]: 300 nM

Structure (SMILES): CC1(C)C(=O)C(C#N)=C[C@]2(C)C3=CC(=O)[C@@H]4[C@@H]5C[C@@](C)(C(=O)NCCCCCO)CC[C@]5(C)CC[C@@]4(C)[C@]3(C)CCC12 (stereo partly drawn) [compound 2, N-(5′-hydroxypentyl)-2-cyano-3,12-dioxo-18βH-olean-9(11),1(2)-dien-30-amide]
- relative cytotoxicity [2]: moderate
- MNTC [2]: 100 nM

Structure (SMILES): CN(C)CCCNC(=O)[C@@]1(C)CC[C@]2(C)CC[C@]3(C)[C@H](C(=O)C=C4[C@@]5(C)C=C(C#N)C(=O)C(C)(C)C5CC[C@]43C)[C@@H]2C1 (stereo partly drawn) [compound 4, N-(3′-(dimethylamino)propyl)-2-cyano-3,12-dioxo-18βH-olean-9(11),1(2)-dien-30-amide]
- relative cytotoxicity [2]: low
- MNTC [2]: 300 nM

Structure (SMILES): CC1(C)C(=O)C(C#N)=C[C@]2(C)C3=CC(=O)[C@@H]4[C@@H]5C[C@@](C)(C(=O)NCCc6c[nH]c7ccccc67)CC[C@]5(C)CC[C@@]4(C)[C@]3(C)CCC12 (stereo partly drawn) [compound 9]
- effect on size/morphology of TGF-β1-induced U87 cells [3]: restored their morphological characteristics to the control cells
- reduction in tumor weight compared to the vehicle-treated group [4]: 3.4 fold
- concentration causing a large-scale reduction of spheroids [5]: 4 µM
- relative cytotoxicity [2]: moderate
- MNTC [2]: 100 nM

Structure (SMILES): CC(C)(C)c1cc(CCCNC(=O)[C@@]2(C)CC[C@]3(C)CC[C@]4(C)[C@H](C(=O)C=C5[C@@]6(C)C=C(C#N)C(=O)C(C)(C)C6CC[C@]54C)[C@@H]3C2)cc(C(C)(C)C)c1O (stereo partly drawn) [compound 8, N-(3′-(3″,5″-di-tert-butyl-4″-hydroxyphenyl)propyl)-2-cyano-3,12-dioxo-18βH-olean-9(11),1(2)-dien-30-amide]
- relative cytotoxicity [2]: high
- MNTC [2]: 50 nM

Structure (SMILES): CC1(C)C(=O)C(C#N)=C[C@]2(C)C3=CC(=O)[C@@H]4[C@@H]5C[C@@](C)(C(=O)Nc6cccnc6)CC[C@]5(C)CC[C@@]4(C)[C@]3(C)CCC12 (stereo partly drawn) [compound 6, N-(pyridin-3-yl)-2-cyano-3,12-dioxo-18βH-olean-9(11),1(2)-dien-30-amide]
- relative cytotoxicity [2]: moderate
- MNTC [2]: 100 nM

Structure (SMILES): CC1(C)C(=O)C(C#N)=C[C@]2(C)C3=CC(=O)[C@@H]4[C@@H]5C[C@@](C)(C(=O)Nc6ccc(Br)cc6)CC[C@]5(C)CC[C@@]4(C)[C@]3(C)CCC12 (stereo partly drawn) [compound 5, N-(4′-bromophenyl)-2-cyano-3,12-dioxo-18βH-olean-9(11),1(2)-dien-30-amide]
- effect on size/morphology of TGF-β1-induced U87 cells [3]: restored their morphological characteristics to the control cells
- relative cytotoxicity [2]: high
- MNTC [2]: 50 nM

Structure (SMILES): Cn1nnc2c(C(N)=O)ncn2c1=O [TMZ, temozolomide, reference compound]
- cells in the right quadrants (apoptosis) [6]: 9%
- IC50 [7]: > 500 µM
- IC50 ([8]; MTT): 213 µM
- reduction of the cytotoxic effect by NAC ([8]; U87, NAC 2 mM, TMZ 125 μM, 7 100 nM): 22.3%
- IC50 ([9]; MTT): > 500 µM
- reduction of the cytotoxic effect by NAC ([9]; U118, NAC 2 mM, TMZ 125 μM, 7 100 nM): 32.5%
- N-cadherin and GFAP levels in tumor sections (immunohistochemistry) [10]: significantly reduced their levels
- reduction in the numerical density of Ki-67-positive cells compared to vehicle [10]: 9 fold
- toxic effects (body weight and organ indices) [11]: no toxic effects
- reduction in tumor weight compared to the vehicle [12]: 21.9 fold
- ROS accumulation (in words) [13]: did not increase ROS accumulation
